Read-outs that look alike come from different tables or passages of the source.
Assays:
[1] = Beagle feeding experiment: pharmacokinetic parameters and relative bioavailability; type: in vivo; conditions: gastric gavage 20 mg/kg, average
Experimental: Sample 1 and Sample 2 and Sample 3 obtained by Example 1, Example 2, Example 3 are used for beagle feeding experiment respectively, and the reduced coenzyme Q10 concentration in blood of feed beagle is determined, a basic pharmacokinetic parameters and relative bioavailability is calculated.
4 beagles, half male and half female, 9-12 kg weight, provided by Shanghai Institute of Medicine Center for experimental animals, laboratory animals use license: SYXK (Shanghai), 2010-0049. A cross double cycle test is made. Gastric gavage is respectively for Sample 1, 2, 3, to fill stomach in a dose of 20 mg/kg, a delivery volume of 2 ml/kg. Samples with a suspension of soybean oil mixture for medicine (filling water 20 ml after feeding), normally feeding and drinking before testing, feeding feed containing meat on morning of the same day of feeding the medicine, to fill the stomach after 30 min. Two cycle tests are interval for a week.
Calculate the Pharmacokinetic Parameters of Compounds by WinNonlin 5.3 Software.
Peak-reaching time Tmax and peak-reaching concentration Cmax use measured values. Drug concentration area under time curve AUC0-t value is calculated by the trapezoidal method, AUC0-∞ is calculated by the formula AUC0-∞=AUC0-t+Ct/ke. Ct is a concentration measured by the last time point, ke is an eliminate rate constant, with half logarithmic mapping method, calculation by eliminating the concentration of the phase; Plasma elimination half-life t1/2=0.693/ke. Relative bioavailability F=(AUC0-t, Sample 2 or 3/AUC0-t, Sample 1)×100%. The main pharmacokinetic parameters after Beagle lavage for 20 mg/kg sample.

[2] = Stability experiment: retention rate of reduced coenzyme Q10 on storage; type: physicochemical; conditions: stored under shading or nitrogen at 18° C.
Experimental: Determining the proportion of reduced coenzyme Q10 in reduced coenzyme Q10 powder or crystals by the HPLC method. Determination conditions are as follows:
Instruments: Agilient 1210
Mobile phase: ethanol/methanol=4/3(V/V)
Detection wavelength: 210 nm
Sample 1 and Sample 2 and Sample 3 obtained by Example 1, Example 2, Example 3 are respectively stored under shading or nitrogen for two months at 18° C. The retention rate of reduced coenzyme Q10 is respectively determined within 1 month and 2 months.

[3] = both sexes, dog, blood, po, 20 mg/kg, suspension in soybean oil

SMILES | bioavailability ([1]; both sexes, dog, blood, po, 20 mg/kg, F=(AUC0-t, Sample 2 or 3/AUC0-t, Sample 1)×100%) [%] | AUC(0-inf) [1, 3] [µg·h/mL] | half-life [1, 3] [h] | AUC0-t ([1]; both sexes, dog, blood, po, 20 mg/kg, suspension in soybean oil, read-out: AUC0-t) [µg·h/mL] | Cmax ([1]; both sexes, dog, blood, po, 20 mg/kg, suspension in soybean oil, read-out: Cmax) [µg/mL] | MRT ([1]; both sexes, dog, blood, po, 20 mg/kg, suspension in soybean oil, read-out: MRT) [h] | Tmax ([1]; both sexes, dog, blood, po, 20 mg/kg, suspension in soybean oil, read-out: Tmax) [h] | The retention rate of reduced coenzyme Q10 within 1 month [2] [%] | The retention rate of reduced coenzyme Q10 within 2 months [2] [%] | AUC0-t ([1]; suspension in soybean oil) [µg·h/mL] | AUC0-∞ ([1]; suspension in soybean oil) [µg·h/mL] | Cmax ([1]; suspension in soybean oil) [µg/mL] | MRT ([1]; suspension in soybean oil) [h] | Tmax ([1]; suspension in soybean oil) [h] | t1/2 ([1]; suspension in soybean oil) [h] | The retention rate of reduced coenzyme Q10 within 2 months ([2]; listed as reduced coenzyme Q10 powder obtained by the method) [%] | The retention rate of reduced coenzyme Q10 within 2 months ([2]; listed as Samples 2) [%]
COc1c(O)c(C)c(C/C=C(\C)CC/C=C(\C)CC/C=C(\C)CC/C=C(\C)CC/C=C(\C)CC/C=C(\C)CC/C=C(\C)CC/C=C(\C)CC/C=C(\C)CCC=C(C)C)c(O)c1OC [Sample 3, reduced coenzyme Q10] | 74.7 | 2.66 | 4.76 | 2.77 | 0.287 | 8.35 | 6.3 | 89.3 | 85.4 | – | – | – | – | – | – | – | –
COc1c(O)c(C)c(C/C=C(\C)CC/C=C(\C)CC/C=C(\C)CC/C=C(\C)CC/C=C(\C)CC/C=C(\C)CC/C=C(\C)CC/C=C(\C)CC/C=C(\C)CCC=C(C)C)c(O)c1OC [Sample 1, reduced coenzyme Q10] | – | – | – | – | – | – | – | 98.4 | 95.5 | 3.64 | 2.865 | 0.303 | 10.9 | 7.5 | 6.11 | 95.5 | –
COc1c(O)c(C)c(C/C=C(\C)CC/C=C(\C)CC/C=C(\C)CC/C=C(\C)CC/C=C(\C)CC/C=C(\C)CC/C=C(\C)CC/C=C(\C)CC/C=C(\C)CCC=C(C)C)c(O)c1OC [Sample 2, reduced coenzyme Q10] | – | – | – | – | – | – | – | 75.4 | 66.3 | 2.359 | 2.405 | 0.261 | 7.77 | 4.5 | 3.94 | – | 66.3

Reference: US10028914B2, “Reduction type coenzyme Q10 powder, composition thereof, and preparation method thereof” (Zhejiang Medicine Co., Ltd. Xinchang Pharmaceutical Factory, priority 2013, dated 2018)
